Like-named read-outs stand apart in the source and are kept apart here.
Experiments:
[1] = tested on: TRPA1V1; experiment: Intracellular calcium (Fluo-4, FLIPR) activation of TRPA1V1 cells (co-expressing TRPA1 and TRPV1) by GRAS compounds; type: cell-based, human; conditions: relative to AITC 30 μM;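 note: HEK293 cells co-expressing TRPA1 and TRPV1, fluorescence read at 488/514 nm after baseline subtraction, recorded every 2 s over 10 min, ionomycin 10 µM and buffer as controls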
[2] = target: T1, human TRPA1 (Homo sapiens, UniProt O75762, K186N/R3C/R58T); experiment: Intracellular calcium (Fluo-4, FLIPR) activation of TRPA1 cells by GRAS compounds; type: cell-based; conditions: for activation at 1000 µM / activation at 100 µM: read-out: A1 activation, % of agonist value;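 for all read-outs here: TRPA1-expressing cells, fluorescence read on a FLIPR Tetra (ex 488 nm, em 514 nm) every 2 s for 10 min after compound addition, baseline subtracted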
T1 construct: expressed in transfected cells; pcDNA3 control cells
T1 sequence (O75762 whole entry R3C/R58T/K186N): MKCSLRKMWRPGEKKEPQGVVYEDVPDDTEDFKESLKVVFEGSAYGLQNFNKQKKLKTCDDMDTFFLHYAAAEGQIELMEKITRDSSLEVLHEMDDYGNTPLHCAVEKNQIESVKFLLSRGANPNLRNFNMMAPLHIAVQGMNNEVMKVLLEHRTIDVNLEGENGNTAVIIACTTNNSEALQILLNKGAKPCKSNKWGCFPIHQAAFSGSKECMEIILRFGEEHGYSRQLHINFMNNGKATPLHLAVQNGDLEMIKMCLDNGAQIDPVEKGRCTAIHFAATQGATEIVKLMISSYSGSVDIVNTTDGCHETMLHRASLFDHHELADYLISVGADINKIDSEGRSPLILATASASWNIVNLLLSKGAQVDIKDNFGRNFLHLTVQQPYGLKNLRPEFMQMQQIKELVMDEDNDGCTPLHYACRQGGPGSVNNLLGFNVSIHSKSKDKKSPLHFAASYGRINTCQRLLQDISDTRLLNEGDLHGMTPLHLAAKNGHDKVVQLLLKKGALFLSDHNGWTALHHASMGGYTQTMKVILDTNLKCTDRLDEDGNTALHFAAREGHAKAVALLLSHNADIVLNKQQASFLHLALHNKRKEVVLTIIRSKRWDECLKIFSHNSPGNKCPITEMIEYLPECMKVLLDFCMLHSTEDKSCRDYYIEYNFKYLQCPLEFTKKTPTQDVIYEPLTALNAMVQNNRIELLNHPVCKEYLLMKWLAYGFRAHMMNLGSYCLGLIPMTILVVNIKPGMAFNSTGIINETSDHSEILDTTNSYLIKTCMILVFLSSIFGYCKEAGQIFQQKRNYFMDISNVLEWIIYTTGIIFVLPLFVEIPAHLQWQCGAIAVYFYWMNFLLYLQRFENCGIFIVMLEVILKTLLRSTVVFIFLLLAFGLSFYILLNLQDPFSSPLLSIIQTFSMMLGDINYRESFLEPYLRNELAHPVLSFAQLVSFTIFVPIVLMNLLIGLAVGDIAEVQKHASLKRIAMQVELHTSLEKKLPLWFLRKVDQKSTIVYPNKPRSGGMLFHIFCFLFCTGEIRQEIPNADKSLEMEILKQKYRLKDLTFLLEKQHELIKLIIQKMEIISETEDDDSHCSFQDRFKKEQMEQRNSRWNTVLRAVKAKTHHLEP

[3] = Table 1(c), 1 mM, relative to AITC 30 μM
[4] = Table 1(d), 1 mM, relative to AITC 30 μM
[5] = Table 1(e), 1 mM, relative to AITC 30 μM
[6] = Table 1(c), 100 μM (*), relative to AITC 30 μM

SMILES: CC(=O)c1ccc(O)cc1 [p-Hydroxyacetophenone]
- A1V1 activation, % of agonist value ([1]; Table 1(c), 1 mM): 49.38%
- activation at 1000 µM [2, 3]: 52.8%

SMILES: CCC(=O)C=CC1C(C)=CCCC1(C)C (stereo not drawn)
- A1V1 activation, % of agonist value ([1]; Table 1(d), 1 mM): 69.7%
- A1 activation, % of agonist value [2, 4]: 97.3%

SMILES: COC(C=C(C)CCC=C(C)C)OC [Citral dimethyl acetal]
- A1V1 activation, % of agonist value ([1]; Table 1(e), 1 mM): 137.2%
- activation at 1000 µM [2, 5]: 102%

SMILES: CC1=NC(CC(C)C)SC1C (stereo not drawn) [3-Thiazoline, 4,5-dimethyl-2-isobutyl-]
- A1V1 activation, % of agonist value ([1]; Table 1(c), 1 mM): 138.7%
- activation at 1000 µM [2, 3]: 142%

SMILES: CCC(=O)OCCOc1ccccc1 [Phenoxyethyl propionate]
- A1V1 activation, % of agonist value ([1]; Table 1(c), 1 mM): 79.34%
- activation at 1000 µM [2, 3]: 65.5%

SMILES: CC/C=C\CC/C=C/C=O [2-trans-6-cis-Nonadienal]
- A1V1 activation, % of agonist value ([1]; Table 1(c), 1 mM): 81.22%
- A1 activation, % of agonist value [2, 3]: 77.3%

SMILES: C=CC(O)CCCCCCC (stereo not drawn) [dec-1-en-3-ol]
- A1V1 activation, % of agonist value ([1]; Table 1(d), 1 mM): 69.5%
- activation at 1000 µM [2, 4]: 90%

SMILES: Cc1ccc(O)cc1 [p-Cresol]
- A1V1 activation, % of agonist value ([1]; Table 1(d), 1 mM): 38.52%
- activation at 1000 µM [2, 4]: 61%

SMILES: O=CC=Cc1ccccc1 [Cinnamaldehyde]
- A1V1 activation, % of agonist value ([1]; Table 1(e), 1 mM): 77.3%
- activation at 1000 µM [2]: 51.2%

SMILES: CC(S)CS (stereo not drawn) [1,2-Propanedithiol]
- A1V1 activation, % of agonist value ([1]; Table 1(c), 100 μM (*)): 65.4%
- A1V1 activation, % of agonist value ([1]; Table 1(c), 1 mM): 73.3%
- A1 activation, % of agonist value [2, 6]: 65.8%
- A1 activation, % of agonist value [2, 3]: 66%

SMILES: COC(=O)c1ccc(OC)cc1 [Methyl p-anisate]
- A1V1 activation, % of agonist value ([1]; Table 1(c), 1 mM): 66.24%
- activation at 1000 µM [2, 3]: 57.5%

SMILES: CCOc1ccc(C=O)cc1 [4-Ethoxybenzaldehyde]
- A1V1 activation, % of agonist value ([1]; Table 1(e), 1 mM): 103%
- activation at 1000 µM [2, 5]: 62%

SMILES: CC=CC(C)=O [3-Penten-2-one]
- A1V1 activation, % of agonist value ([1]; Table 1(d), 1 mM): 35%
- activation at 1000 µM [2, 4]: 64.2%

SMILES: CC/C=C\CCCCC=O [cis-6-Nonenal]
- A1V1 activation, % of agonist value ([1]; Table 1(c), 1 mM): 93%
- activation at 1000 µM [2, 3]: 108%

SMILES: CCCCCC(C=O)=Cc1ccccc1 [alpha-Amylcinnamaldehyde]
- A1V1 activation, % of agonist value ([1]; Table 1(c), 1 mM): 82.7%
- activation at 1000 µM [2, 3]: 86.6%

SMILES: C=CC(=O)CC [Ethyl vinyl ketone]
- A1V1 activation, % of agonist value ([1]; Table 1(d), 1 mM): 40.61%
- activation at 1000 µM [2, 4]: 79.5%

SMILES: Cc1ccccc1OC(=O)C(C)C [O-Tolyl isobutyrate]
- A1V1 activation, % of agonist value ([1]; Table 1(c), 1 mM): 57.76%
- A1 activation, % of agonist value [2, 3]: 49.37%

SMILES: CCCCCC(=O)c1ccco1 [2-Hexanoylfuran]
- A1V1 activation, % of agonist value ([1]; Table 1(c), 1 mM): 109%
- activation at 1000 µM [2, 3]: 118%

SMILES: OCC=Cc1ccccc1 [Cinnamyl alcohol]
- A1V1 activation, % of agonist value ([1]; Table 1(c), 1 mM): 79.4%
- activation at 1000 µM [2]: 89.8%

SMILES: O=C(c1ccccc1)C(O)c1ccccc1 (stereo not drawn) [Benzoin]
- A1V1 activation, % of agonist value ([1]; Table 1(e), 1 mM): 61.81%
- activation at 1000 µM [2, 5]: 26.2%

SMILES: CCCCCC=CC(=O)O [2-Octenoic acid]
- A1V1 activation, % of agonist value ([1]; Table 1(c), 1 mM): 61.77%
- activation at 1000 µM [2, 3]: 55.9%

SMILES: CSCCCN=C=S [Propane, 1-isothiocyanato-3-(methylthio)-]
- A1V1 activation, % of agonist value ([1]; Table 1(e), 1 mM): 114.6%
- activation at 1000 µM [2, 5]: 81.6%

SMILES: CCCCC/C=C\CCO [Cis-3-nonen-1-ol]
- A1V1 activation, % of agonist value ([1]; Table 1(d), 1 mM): 41.22%
- activation at 1000 µM [2, 4]: 55%

SMILES: CC(=O)c1ccc(C)cc1C [2′,4′-Dimethylacetophenone]
- A1V1 activation, % of agonist value ([1]; Table 1(e), 1 mM): 45.30%
- activation at 1000 µM [2, 5]: 24.4%

SMILES: CCOc1cc(C2OCC(C)O2)ccc1O (stereo not drawn) [Ethyl vanillin propylene glycol acetal]
- A1V1 activation, % of agonist value ([1]; Table 1(c), 1 mM): 72.64%
- A1 activation, % of agonist value [2, 3]: 66.41%

SMILES: O=C(O)C=Cc1ccccc1 [Cinnamic acid]
- A1V1 activation, % of agonist value ([1]; Table 1(c), 1 mM): 42.5%
- activation at 1000 µM [2, 3]: 37.7%

SMILES: CC1(O)CSC(C)(O)CS1 (stereo not drawn) [2,5-dimethyl-1,4-dithilane-2,5-diol]
- A1V1 activation, % of agonist value ([1]; Table 1(c), 100 μM (*)): 87.2%
- A1 activation, % of agonist value [2, 6]: 77.5%

SMILES: CCOC(=O)c1ccccc1 [Ethyl benzoate]
- A1V1 activation, % of agonist value ([1]; Table 1(c), 1 mM): 60%
- activation at 1000 µM [2, 3]: 70%

SMILES: CCC(=O)Oc1c(C)occc1=O [Maltol propionate]
- A1V1 activation, % of agonist value ([1]; Table 1(c), 1 mM): 81.97%
- A1 activation, % of agonist value [2, 3]: 85.04%

SMILES: CCC(=O)OCc1ccccc1 [Benzyl propionate]
- A1V1 activation, % of agonist value ([1]; Table 1(c), 1 mM): 90.7%
- activation at 1000 µM [2, 3]: 103%

SMILES: C=C(C)CCCC(C)CCO (stereo not drawn) [3,7-Dimethyl-7-octen-1-ol]
- A1V1 activation, % of agonist value ([1]; Table 1(d), 1 mM): 70.7%
- activation at 1000 µM [2, 4]: 93.7%

SMILES: CC=Cc1ccc(OC(C)=O)c(OC)c1 [Isoeugenyl acetate]
- A1V1 activation, % of agonist value ([1]; Table 1(c), 1 mM): 68.34%
- activation at 1000 µM [2, 3]: 57.6%

SMILES: CC(=O)Cc1ccco1 [2-Furylacetone]
- A1V1 activation, % of agonist value ([1]; Table 1(c), 1 mM): 59.5%
- activation at 1000 µM [2, 3]: 60.8%

SMILES: CCCCCCCCC/C=C/C=O [Trans-2-dodecenal]
- A1V1 activation, % of agonist value ([1]; Table 1(c), 100 μM (*)): 66%
- activation at 100 µM [2, 6]: 79.1%

SMILES: C=CCCCN=C=S [Isothiocyanic acid 4-penten-1-yl ester]
- A1V1 activation, % of agonist value ([1]; Table 1(c), 100 μM (*)): 47.3%
- A1V1 activation, % of agonist value ([1]; Table 1(e), 1 mM): 74.8%
- activation at 100 µM [2, 6]: 51.6%
- activation at 1000 µM [2, 5]: 62.2%

SMILES: C=CC(C)(CCC=C(C)C)OC(=O)c1ccccc1 (stereo not drawn) [Linalyl benzoate]
- A1V1 activation, % of agonist value ([1]; Table 1(c), 100 μM (*)): 55.3%
- activation at 100 µM [2, 6]: 44.4%

SMILES: CC(=O)OCC=Cc1ccccc1 [Cinnamyl acetate]
- A1V1 activation, % of agonist value ([1]; Table 1(c), 1 mM): 89.73%
- activation at 1000 µM [2, 3]: 85%

SMILES: Cc1c(C(=O)O)c(O)cc2c1C(=O)c1c(O)c(C3O[C@H](CO)[C@@H](O)[C@H](O)[C@H]3O)c(O)c(O)c1C2=O (stereo in doubt) [Carmine]
- A1V1 activation, % of agonist value ([1]; Table 1(c), 1 mM): 61.54%
- activation at 1000 µM [2, 3]: 66.2%

SMILES: COC(=O)c1ccccc1OC [Methyl 2-methoxybenzoate]
- A1V1 activation, % of agonist value ([1]; Table 1(c), 1 mM): 74.68%
- activation at 1000 µM [2, 3]: 71.2%

SMILES: CC(C)CCN=C=S [3-Methylbutyl isothiocyanate]
- A1V1 activation, % of agonist value ([1]; Table 1(e), 1 mM): 111.2%
- activation at 1000 µM [2, 5]: 61.1%

SMILES: CCCOC(C)OCCc1ccccc1 (stereo not drawn) [Acetaldehyde, phenethyl propyl acetal]
- A1V1 activation, % of agonist value ([1]; Table 1(d), 1 mM): 62.2%
- A1 activation, % of agonist value [2, 4]: 86.4%

SMILES: CC(C)CC(O)Cc1ccccc1 (stereo not drawn) [Alpha-Isobutylphenethyl alcohol]
- A1V1 activation, % of agonist value ([1]; Table 1(c), 1 mM): 58.62%
- activation at 1000 µM [2, 3]: 73%

SMILES: C=C(C)CCC[C@H](C)CCO [Rhodinol]
- A1V1 activation, % of agonist value ([1]; Table 1(d), 1 mM): 78.75%
- activation at 1000 µM [2, 4]: 116%

SMILES: COc1ccc(CCC(C)=O)cc1 [4-Methoxybenzylacetone]
- A1V1 activation, % of agonist value ([1]; Table 1(c), 1 mM): 71.16%
- activation at 1000 µM [2, 3]: 62.3%

SMILES: CC/C=C/CC/C=C/C=O [(E,E)-2,6-Nonadienal]
- A1V1 activation, % of agonist value ([1]; Table 1(c), 1 mM): 89.61%
- activation at 1000 µM [2, 3]: 87.1%

SMILES: COC(=O)CCCc1ccccc1 [Methyl 4-phenylbutyrate]
- A1V1 activation, % of agonist value ([1]; Table 1(c), 1 mM): 50.30%
- activation at 1000 µM [2, 3]: 58.4%

SMILES: Cc1ccc(C(C)O)cc1 (stereo not drawn) [Benzyl alcohol, p,alpha-dimethyl-]
- A1V1 activation, % of agonist value ([1]; Table 1(c), 1 mM): 71.8%
- A1 activation, % of agonist value [2, 3]: 77.2%

SMILES: CCCCCC(=O)CCCC(=O)OCC [Ethyl 5-oxodecanoate]
- A1V1 activation, % of agonist value ([1]; Table 1(d), 1 mM): 28.24%
- activation at 1000 µM [2, 4]: 51%

SMILES: CC=Cc1ccc(OC(=O)Cc2ccccc2)c(OC)c1 [Isoeugenyl phenylacetate]
- A1V1 activation, % of agonist value ([1]; Table 1(c), 1 mM): 58.40%
- activation at 1000 µM [2, 3]: 59.1%

SMILES: C=C(C)C1CCC(C)C(=O)C1 (stereo not drawn) [p-Menth-8-en-2-one]
- A1V1 activation, % of agonist value ([1]; Table 1(e), 1 mM): 59.5%
- activation at 1000 µM [2, 5]: 39.9%

SMILES: CCOC(=O)C(C)S (stereo not drawn) [Ethyl 2-mercaptopropionate]
- A1V1 activation, % of agonist value ([1]; Table 1(c), 100 μM (*)): 70.2%
- activation at 100 µM [2, 6]: 88.3%

SMILES: CCCCCCCCOC(=O)c1ccco1 [Octyl 2-furoate]
- A1V1 activation, % of agonist value ([1]; Table 1(d), 1 mM): 40.60%
- activation at 1000 µM [2, 4]: 54.3%
